From patent US20080139664A1, “ANTI-GLYCATION AGENTS FOR PREVENTING AGE-, DIABETES-, AND SMOKING-RELATED COMPLICATIONS” (NATIONAL RESEARCH COUNCIL OF CANADA, priority 2001, published 2008)
Where a name gives a salt, the structure may show the parent alone. Read-outs that look alike come from different tables or passages of the source.

Experiments:
[1] = test system: bovine serum albumin (BSA)
Experimental: (§1) During the glycation reaction between proteins and reducing sugars, a specific fluorescence with excitation and emission wavelength of 370 nm and 440 nm, respectively, is observed. […] The assay was based on the progressive development of the characteristic Maillard fluorescence (370 nm Ex and 440 nm Em) during the progress of the glycation reaction.
(§2) The final assay volume was 200 μl and each assay well contained 0.075 mM BSA, and 50 mM D-ribose. Compounds were assayed at 3 different concentration levels (0.003, 0.03, and 0.3 mg/mL) to determine the effect of concentration on inhibition. Samples were incubated for 5 days.
(§3) The Maillard fluorescence was directly measured from the reaction solution, except for the anti-glycants that quenched the Maillard fluorescence, which were analyzed by the earlier-described HPLC method.
(§4) Solutions were incubated in microtitre plates (96 wells) at 37° C. for 5 days in a closed system.
(§5) After one hour incubation at 37° C., fluorescence readings were taken.
(§6) The IC50 values of the compounds that quenched the fluorescence of the glycated BSA were analyzed by on-line monitoring of the fluorescence of the glycated BSA separated from the fluorescence quenching assay compound by RP-HPLC. The elution profile was monitored by UV-diode array and by fluorescence (λex=370 nm, λem=440 nm). […] The incubation conditions were the same as above.

[2] = test system: lysozyme; test: ESI-MS of lysozyme glycoforms after incubation with D-ribose; conditions: 37° C., 5 days;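 note: lysozyme incubated with D-ribose, with or without anti-glycation agents, then separated by reversed-phase HPLC and analysed by electrospray mass spectrometry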
[3] = test system: bovine serum albumin (BSA); test: Maillard fluorescence-based assay of AGEs formation, IC50 determination (BSA + D-ribose)
Experimental: as §1, §2, §3, §4, §5, §6

[4] = inhibition of Maillard fluorescence development, 0.075 mM BSA, 50 mM D-ribose, 37° C., 5 days

| Compound | IC50 [1] | IC50 [3, 4] | other results |
| --- | --- | --- | --- |
| Cc1ncc([N+](=O)[O-])n1CCO [Metronidazole] | 0.66 mM |  |  |
| O=C(O)c1cc(/N=N/c2ccc(S(=O)(=O)Nc3ccccn3)cc2)ccc1O [Sulfasalazine] |  |  | Peak area as % of total area of all glycoforms, 14,569 ([2]; lysozyme + 2D-ribose − 2H2O (14,569 Da)): 4.7%; Peak area as % of total area of all glycoforms, 14,551 ([2]; lysozyme + 2D-ribose − 3H2O (14,551 Da)): 4.7%; Peak area as % of total area of all glycoforms, 14,533 ([2]; lysozyme + 2D-ribose − 5H2O (14,533 Da)): 2.1%; Peak area as % of total area of all glycoforms, 14,515 ([2]; lysozyme + 2D-ribose − 6H2O (14,515 Da)): 1.3%; Peak area as % of total area of all glycoforms, 14,419 ([2]; lysozyme + D-ribose − 2H2O (14,419 Da)): 8.2%; Peak area as % of total area of all glycoforms, 14,401 ([2]; lysozyme + D-ribose − 3H2O (14,401 Da)): 2.7%; Peak area as % of total area of all glycoforms, 14,437 ([2]; lysozyme + D-ribose − H2O (14,437 Da)): 20.6%; Peak area as % of total area of all glycoforms, 14,496 ([2]; lysozyme + D-ribose − H2O with one carboxymethylated Lys residue (14,496 Da)): 1.5%; Peak area as % of total area of all glycoforms, 14,364 ([2]; lysozyme with one carboxymethylated Lys residue (14,364 Da)): 2.9%; Peak area as % of total area of all glycoforms, 14,305 ([2]; unmodified lysozyme (14,305 Da)): 47.2% |
| COCC(N)c1ccc(O)c(O)c1 (stereo not drawn) [3,4-Dihydroxy-1-[(α-amino-β-methoxy)ethyl]benzene] |  | 78 µM |  |
| COc1ccc(-c2coc3cc(O)cc(O)c3c2=O)cc1 [Biochanin A] |  | 290 µM |  |
| NC(=O)c1ccc([N+](=O)[O-])cc1Cl [Aklomide] |  | 350 µM |  |
| CO[C@H]1/C=C/O[C@@]2(C)Oc3c(C)c(O)c4c(O)c(c(/C=N/N5CCN(C)CC5)c(O)c4c3C2=O)NC(=O)/C(C)=C\C=C\[C@H](C)[C@H](O)[C@@H](C)[C@@H](O)[C@@H](C)[C@H](OC(C)=O)[C@@H]1C [Rifampicin] | 0.12 mM |  |  |
| D,L-Epinephrine |  |  | IC50 [3]: 15 µM |
| C[C@H](N)[C@H](O)c1ccc(O)c(O)c1 [Corbadrine] |  | 52 µM |  |
| CC(CCc1ccccc1)NC(CO)c1ccc(O)c(O)c1 (stereo not drawn) [3,4-Dihydroxy-1-[α-(1-methyl-3-phenyl-propylamino)-β-hydroxyethyl]benzene hydrochloride] |  | 350 µM |  |
| O=C(Cn1ccnc1[N+](=O)[O-])NCCO [Etanidazole] | 0.45 mM |  |  |
| COC1=C[C@@H]2[C@@H]3Cc4ccc(OC)c(O)c4[C@]2(CCN3C)CC1=O [Sinomenine] |  | > 4000 µM |  |
| Cc1cc2c(OCC(CNC(C)(C)C)OC(=O)c3ccccc3)cccc2[nH]1 (stereo not shown) [Bopindolol] |  | 170 µM |  |
| O=c1cc(CO)occ1O [Kojic acid] | > 4 mM |  |  |
| O=c1cc(-c2ccc(O)c(O)c2)oc2cccc(O)c12 [5,3′,4′-Trihydroxyflavone] | 1.6 mM |  |  |
| Nc1c(Cl)cc([N+](=O)[O-])cc1Cl [Botran] | > 4 mM |  |  |
| CC[C@@]1(O)C[C@H](O[C@H]2C[C@H](N(C)C)[C@H](O[C@H]3C[C@H](O)[C@H](O[C@H]4CCC(=O)[C@H](C)O4)[C@H](C)O3)[C@H](C)O2)c2c(cc3c(c2O)C(=O)c2c(O)cccc2C3=O)[C@H]1C(=O)OC [Aclarubicin] |  | 2500 µM |  |
| COCCOC(=O)C1=C(C)NC(C)=C(C(=O)OC(C)C)C1c1cccc([N+](=O)[O-])c1 (stereo not shown) [Nimodipine] | > 4 mM |  |  |
| COc1cc(C2Oc3cc([C@H]4Oc5cc(O)cc(O)c5C(=O)[C@@H]4O)ccc3OC2CO)ccc1O (stereo partly shown) [Silibinin] | 0.75 mM |  |  |
| COc1ccc(O)c(C(C)(C)C)c1 [BHA] |  | > 4000 µM |  |
| CC1=C(/C=C/C(C)=C/C=C/C(C)=C/C=C/C=C(C)/C=C/C=C(C)/C=C/C2=C(C)CCCC2(C)C)C(C)(C)CCC1 [beta-Carotene] | 0.63 mM |  |  |
| CC(CCc1ccccc1)NCC(=O)c1ccc(O)c(O)c1 (stereo not drawn) [α-(1-Methyl-3-phenyl-propylamino)-3,4-dihydroxyacetophenone hydrochloride] |  | 890 µM |  |
| O=[N+]([O-])c1cccc(SSc2cccc([N+](=O)[O-])c2)c1 [Nitrophenide] | 4 mM |  |  |
| CN1CC(O)C2=C/C(=N/NC(N)=O)C(=O)C=C21 (stereo not shown) [Carbazochrome] |  | 3500 µM |  |
| COc1cccc2c1cc([N+](=O)[O-])c1c(C(=O)O)cc3c(c12)OCO3 [Aristolochic acid] | > 4 mM |  |  |
| O=S1(=O)OC(c2ccc(O)cc2)(c2ccc(O)cc2)c2ccccc21 [Phenol red] | 1.8 mM |  |  |
| O=[N+]([O-])c1ccc(O)cc1 [p-Nitrophenol] |  | > 4000 µM |  |
| CC(NCCc1ccc(O)cc1)C(O)c1ccc(O)cc1 (stereo not shown) [Ritodrine] | > 4 mM |  |  |
| O=[N+]([O-])c1ccc(O)c(Cl)c1 [2-Chloro-4-nitrophenol] | 3.5 mM |  |  |
